Measured values from patent publication US20240262806A1, “INHIBITORS OF NLRP3” (PTC THERAPEUTICS, INC., priority 2021, published 2024).

Tested on: NLRP3 inflammasome
Experiment: IL-1β Secretion Assay (NLRP3-dependent IL-1β secretion in PMA-differentiated THP-1 cells, nigericin activation, HTRF)
Type: cell-based
Conditions: Homo sapiens, THP-1, THP-1 cells, 100 ng/mL PMA 24 h, compound 20 h, 2.5 μM Nigericin 3 h; read-out: IC50 IL-1β Inhibition
In short: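 IL-1β release, quantified by HTRF after nigericin activation of the NLRP3 inflammasome, was the read-out. A logistic fit of percent inhibition gave IC50.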

`C[C@@H](O)CNc1nnc(-c2ccc(OC(F)(F)F)cc2O)c2cccn12` [Compound I-437] and `C[C@]1(O)C[C@@H](Nc2nnc(-c3ccc(OC(F)(F)F)cc3O)c3cccn23)C1` [Compound I-523] fall in the same range of IC50: 0.01 to 0.1 µM for the first, 0.01 to 0.1 µM for the second.

`CN1CCC(Nc2nnc(-c3ccc(C(F)(F)F)cc3O)c3ccncc23)CC12CC2` (stereo not drawn) [Compound I-212] and `Oc1cc(C(F)(F)F)ccc1-c1nnc(N[C@H]2CNCCOC2)c2cnccc12` [Compound I-252] fall in the same range of IC50: 0.01 to 0.1 µM for the first, 0.01 to 0.1 µM for the second.

First: CCN1C[C@H](F)C[C@@H](Nc2nnc(-c3c(O)cc(Cl)cc3F)c3cccn23)C1 [Compound I-620]
Second: [2H]C([2H])([2H])Oc1cc(O)c(-c2nnc(N[C@@H]3CCCN(CC)C3)n3cccc23)c(F)c1 [Compound I-514, (R)-2-(4-((1-ethylpiperidin-3-yl)amino)pyrrolo[1,2-d][1,2,4]triazin-1-yl)-3-fluoro-5-(methoxy-d3)phenol]
The IC50 of the first is higher: 0.001 to 0.01 µM for the first, less than 0.001 µM for the second. The second is the more potent here.

First: FC(F)Oc1cc(C(F)(F)F)ccc1-c1nnc(N[C@@H]2CCCN(C3CCOCC3)C2)n2cccc12 [Compound I-326]
Second: CN1CCC[C@@H](Nc2nnc(-c3ccc(OC(F)(F)F)cc3OC(F)F)c3cccn23)C1 [Compound I-519]
The IC50 of the first is lower: less than 0.001 µM for the first, 0.001 to 0.01 µM for the second. The first is the more potent here.

First: FC(F)Oc1cc(C(F)(F)F)ccc1-c1nnc(NC[C@@H]2CCCO2)n2cccc12 [Compound I-610]
Second: C[C@]1(O)C[C@@H](Nc2nnc(-c3ccc(C(F)(F)F)cc3OC(F)F)c3cccn23)C1 [Compound I-537]
The IC50 of the first is higher: 0.01 to 0.1 µM for the first, 0.001 to 0.01 µM for the second. The second is the more potent here.

First: CCN1C[C@H](O)C[C@@H](Nc2nnc(-c3ccc(OC(F)(F)F)cc3O)c3c(F)ccn23)C1 [Compound I-605]
Second: Oc1cc(C(F)(F)F)ccc1-c1nnc(N[C@@H]2CCC[C@H](O)C2)n2ccc(F)c12 [Compound I-526]
The IC50 of the first is higher: 0.1 to 0.3 µM for the first, 0.01 to 0.1 µM for the second. The second is the more potent here.

Compared with `Cc1nc(-c2ccc(-c3nnc(N[C@@H]4CCCN(C)C4)c4ccccc34)c(O)c2)ns1` [Compound I-38], `Cc1nc(-c2ccc(-c3nnc(N[C@@H]4CCCNC4)c4ccccc34)c(O)c2)ns1` [Compound I-32] is higher in IC50: less than 0.001 µM for the first, 0.01 to 0.1 µM for the second.

First: CN1CCC[C@@H](Nc2nnc(-c3c(O)cc(C(F)(F)F)cc3F)c3cccn23)C1 [Compound I-372]
Second: CN1CCC[C@@H](Nc2nnc(-c3c(F)cc(C(F)(F)F)cc3OC(F)F)c3cccn23)C1 [Compound I-487]
The IC50 of the first is lower: less than 0.001 µM for the first, 0.001 to 0.01 µM for the second. The first is the more potent here.

First: CN1CCC[C@@H](Nc2nnc(-c3ccc(Br)cc3OCc3ccccc3)c3ccnn23)C1 [Compound I-545]
Second: CN1CCC[C@@H](Nc2nnc(-c3ccc(Br)cc3OC(F)(F)F)c3cccn23)C1 [Compound I-504]
The IC50 of the first is higher: 0.01 to 0.1 µM for the first, less than 0.001 µM for the second. The second is the more potent here.

First: COc1cccc(-c2nnc(N[C@@H]3CCCN(C)C3)c3cnccc23)c1O [Compound I-73]
Second: COc1cc(C(F)F)ccc1-c1nnc(N[C@@H]2CCCN(C)C2)c2cnccc12 [Compound I-234]
The IC50 of the first is lower: less than 0.001 µM for the first, 0.01 to 0.1 µM for the second. The first is the more potent here.

First: CN1C[C@H](F)C[C@@H](Nc2nnc(-c3ccc(C(F)(F)F)cc3O)c3cncn23)C1 [Compound I-528]
Second: Oc1cc(C(F)(F)F)ccc1-c1nnc(N[C@@H]2CCCOC2)n2cncc12 [Compound I-397]
The IC50 of the first is lower: less than 0.001 µM for the first, 0.01 to 0.1 µM for the second.

Compared with `Cc1cc(OC(F)F)c(-c2nnc(N[C@@H]3CCCN(C)C3)c3cnccc23)cc1F` [Compound I-178], `Cc1cccc(-c2nnc(N[C@@H]3CCCN(C)C3)c3cnccc23)c1OC(F)F` [Compound I-168] is higher in IC50: 0.001 to 0.01 µM for the first, 0.01 to 0.1 µM for the second. The first is the more potent here.

First: Cc1cc2c(-c3ccc(C4CC4)cc3O)nnc(N[C@@H]3CCCN(C)C3)n2n1 [Compound I-327]
Second: Cc1cc2c(-c3ccc(Br)cc3O)nnc(N[C@@H]3CCCN(C)C3)n2n1 [Compound I-334]
The IC50 of the first is higher: 0.001 to 0.01 µM for the first, less than 0.001 µM for the second. The second is the more potent here.

`CN1CCC[C@@H](Nc2nnc(-c3ccc(OC(F)(F)F)cc3OC(F)F)c3ccncc23)C1` [Compound I-191] and `CN1CCC[C@@H](Nc2nnc(-c3ccc(C(F)(F)F)cc3C(F)F)c3ccncc23)C1` [Compound I-138] fall in the same range of IC50: 0.001 to 0.01 µM for the first, 0.001 to 0.01 µM for the second.

`CC(=O)Nc1cc(C(F)(F)F)ccc1-c1nnc(N[C@@H]2CCCN(C)C2)c2ccccc12` [Compound I-126] and `CN1CCC[C@@H](Nc2nnc(-c3ccc(C(F)(F)F)cc3O)c3cc(F)ccc23)C1` [Compound I-9] fall in the same range of IC50: 0.001 to 0.01 µM for the first, 0.001 to 0.01 µM for the second.

First: CCN1CCC[C@H](Nc2nnc(-c3c(O)cc(C4CC4)cc3F)c3cc(C)nn23)C1 [Compound I-554]
Second: OCCN1CCC[C@@H](Nc2nnc(-c3c(O)cc(C4CC4)cc3F)c3cccn23)C1 [Compound I-379]
The IC50 of the first is lower: less than 0.001 µM for the first, 0.001 to 0.01 µM for the second.

First: CN1CCC[C@@H](Nc2nnc(-c3ccc(OC(F)(F)F)cc3O)c3cccn23)C1 [Compound I-366]
Second: [2H]C([2H])([2H])Oc1ccc(-c2nnc(N[C@@H]3CCCN(C)C3)n3cccc23)c(O)c1 [Compound I-501, (R)-5-(Methoxy-d3)-2-(4-((1-methylpiperidin-3-yl)amino)pyrrolo[1,2-d][1,2,4]triazin-1-yl)phenol]
The IC50 of the first is higher: 0.001 to 0.01 µM for the first, less than 0.001 µM for the second.

First: CN1CCC[C@@H](Nc2nnc(-c3ccc(C4CC4)cc3C(F)F)c3ccncc23)C1 [Compound I-248]
Second: CN1CCC[C@@H](Nc2nnc(-c3ccc(C4CC4)cc3O)c3ccncc23)C1 [Compound I-89]
The IC50 of the first is higher: 0.001 to 0.01 µM for the first, less than 0.001 µM for the second. The second is the more potent here.

Compared with `C[C@]1(O)C[C@@H](Nc2nnc(-c3ccc(Br)cc3O)c3cncn23)C1` [Compound I-627], `OCCN1CCC[C@@H](Nc2nnc(-c3ccc(Br)cc3O)c3cncn23)C1` [Compound I-623] is lower in IC50: 0.001 to 0.01 µM for the first, less than 0.001 µM for the second.

`CN1CCC[C@@H](Nc2nnc(-c3ccc(C(F)(F)F)cc3O)c3ccoc23)C1` [Compound I-313, (R)-2-(7-((1-Methylpiperidin-3-yl)amino)furo[2,3-d]pyridazin-4-yl)-5-(trifluoromethyl)phenol] and `CN1CCC[C@@H](Nc2nnc(-c3c(O)cc(C(F)(F)F)cc3F)c3ccncc23)C1` [Compound I-197] cannot be ordered by IC50: less than 0.001 µM for the first, less than 0.001 µM for the second.

`CC(C)N1CCC[C@@H](Nc2nnc(-c3ccc(Cl)cc3O)c3cccn23)C1` [Compound I-404] and `CN1CCC[C@@H](Nc2nnc(-c3ccc(Cl)cc3O)c3ccccc23)C1` [Compound I-13] cannot be ordered by IC50: less than 0.001 µM for the first, less than 0.001 µM for the second.

First: Cc1noc2c(-c3ccc(C(F)(F)F)cc3O)nnc(N[C@@H]3CCCN(CCO)C3)c12 [Compound I-256, 2-[3-methyl-4-[[(3R)-1-(2-hydroxyethyl)-3-piperidyl]amino]isoxazolo[4,5-d]pyridazin-7-yl]-5-(trifluoromethyl)phenol]
Second: CCN1CCC[C@@H](Nc2nnc(-c3ccc(OC(F)(F)F)cc3O)c3cc(C)nn23)C1 [Compound I-584]
The IC50 of the first is higher: 0.01 to 0.1 µM for the first, less than 0.001 µM for the second.

First: Cc1ccc(-c2nnc(N[C@@H]3CCCN(C)C3)c3ccccc23)c(F)c1F [Compound I-165]
Second: CN1CCC[C@@H](Nc2nnc(-c3ccc(Cl)cc3O)c3cnccc23)C1 [Compound I-59]
The IC50 of the first is higher: 0.01 to 0.1 µM for the first, less than 0.001 µM for the second. The second is the more potent here.

First: Cc1cc(O)c(-c2nnc(NCC(C)(C)O)n3cccc23)c(F)c1 [Compound I-539]
Second: CC(C)(O)CNc1nnc(-c2c(O)cc(C3CC3)cc2F)c2cccn12 [Compound I-540]
The IC50 of the first is lower: 0.001 to 0.01 µM for the first, 0.01 to 0.1 µM for the second.

Compared with `CN1CCC[C@H]1CNc1nnc(-c2ccc(C(F)(F)F)cc2O)c2ccncc12` [Compound I-112], `CN1CCCC(Cc2nnc(-c3ccc(C(F)(F)F)cc3O)c3ccncc23)C1` (stereo not drawn) [Compound I-567] is higher in IC50: less than 0.001 µM for the first, 0.01 to 0.1 µM for the second. The first is the more potent here.

First: CCN1CCC[C@@H](Nc2nnc(-c3ccc(C(F)(F)F)cc3OC(F)F)c3cncn23)C1 [Compound I-574, (R)-1-(2-(Difluoromethoxy)-4-(trifluoromethyl)phenyl)-N-(1-ethylpiperidin-3-yl)imidazo[1,5-d][1,2,4]triazin-4-amine]
Second: CCN1CCC[C@@H](Nc2nnc(-c3ccc(C(F)(F)F)cc3OC(F)F)c3c(F)ccn23)C1 [Compound I-566]
The IC50 of the first is lower: less than 0.001 µM for the first, 0.001 to 0.01 µM for the second. The first is the more potent here.

First: COc1ccc(-c2nnc(N[C@@H]3CCCNC3)c3cc(C)nn23)c(O)c1 [Compound I-339]
Second: CC1(C)CCc2c(N[C@@H]3CCCNC3)nnc(-c3ccc(C(F)(F)F)cc3O)c21 [Compound I-45]
The IC50 of the first is higher: 0.1 to 0.3 µM for the first, 0.001 to 0.01 µM for the second. The second is the more potent here.

First: COc1cc(C(F)(F)F)ccc1-c1nnc(N[C@@H]2CCCCNC2)c2cnccc12 [Compound I-251]
Second: FC(F)Oc1cc(C(F)(F)F)ccc1-c1nnc(N[C@@H]2CCCNC2)c2ccncc12 [Compound I-231]
The IC50 of the first is higher: 0.1 to 0.3 µM for the first, 0.01 to 0.1 µM for the second. The second is the more potent here.

`Cc1cc(C(F)(F)F)cc(F)c1-c1nnc(N[C@@H]2CCCN(C)C2)c2cnccc12` [Compound I-222] and `CN1CCC[C@@H](Nc2nnc(-c3ccc(-c4ncccn4)cc3O)c3ccncc23)C1` [Compound I-200] fall in the same range of IC50: 0.001 to 0.01 µM for the first, 0.001 to 0.01 µM for the second.

`Oc1cc(C(F)(F)F)ccc1-c1nnc(N[C@H]2CNC[C@H](O)C2)c2ccccc12` [Compound I-83] and `Oc1cc(C(F)(F)F)ccc1-c1nnc(NC2CCNC2)c2ccccc12` (stereo not drawn) [Compound I-6] fall in the same range of IC50: 0.01 to 0.1 µM for the first, 0.01 to 0.1 µM for the second.

`CN1CCC[C@@H](Nc2nnc(-c3ccc(C(F)(F)F)cc3C(F)(F)F)c3cccn23)C1` [Compound I-348] and `C[C@@H](O)CNc1nnc(-c2ccc(C(F)(F)F)cc2C(F)(F)F)c2cccn12` [Compound I-492] fall in the same range of IC50: 0.001 to 0.01 µM for the first, 0.001 to 0.01 µM for the second.

First: CN(C)C1CCCN(c2nnc(-c3ccc(C(F)(F)F)cc3O)c3cnccc23)C1 (stereo not drawn) [Compound I-152]
Second: COc1cc(C(F)(F)F)ccc1-c1nnc(N2CCC(N(C)C)CC2)c2cnccc12 [Compound I-201]
The IC50 of the first is lower: 0.001 to 0.01 µM for the first, 0.01 to 0.1 µM for the second.

`COc1cc(Cl)ccc1-c1nnc(N[C@@H]2CCCN(C)C2)n2cncc12` [Compound I-383] and `CN1CCC[C@@H](Nc2nnc(-c3ccc(C(F)(F)F)cc3OC(F)F)c3c(F)ccn23)C1` [Compound I-394] fall in the same range of IC50: 0.001 to 0.01 µM for the first, 0.001 to 0.01 µM for the second.

Compared with `Oc1cc(C(F)(F)F)ccc1-c1nnc(N[C@@H]2CCCNC2)c2c1CCCCC2` [Compound I-31, (R)-2-(4-(Piperidin-3-ylamino)-6,7,8,9-tetrahydro-5H-cyclohepta[d]pyridazin-1-yl)-5-(trifluoromethyl)phenol], `CN1CCC[C@H](Nc2nnc(-c3ccc(Cl)cc3O)c3c2N(C)CCC3)C1` [Compound I-155] is higher in IC50: less than 0.001 µM for the first, 0.001 to 0.01 µM for the second.

`CN1CCC[C@@H](Nc2nnc(-c3ccccc3OC(F)F)c3c2CCC3)C1` [Compound I-245] showed an IC50 of 0.001 to 0.01 µM.
